# Numbered stars: 1 amine (or outer) side, 2 acyl side, 3 side chain; on linkers, the order of the positions; unused ones are H or OH. Bridge positions count the residues as written; N and C are the ends. Square brackets hold non-standard residues; d marks the D form. Peptide text beside a SMILES is read from it. * marks the point of attachment. pTerphenylCO(4''-OnC5H11) = CCCCCOc1ccc(-c2ccc(-c3ccc(C(=O)*)cc3)cc2)cc1; Orn(4R-OH,5R-OH) = O=C([C@H](C[C@@H](O)[C@@H](O)N[*:3])N[*:1])[*:2]; hTyr(3S-OH,4S-OH) = N[C@H](C(=O)O)[C@H](O)[C@@H](O)c1ccc(O)cc1; Pro(3S-OH,4S-Me) = C[C@H]1CN[C@H](C(=O)O)[C@H]1O; Hyp = O=C(O)[C@@H]1C[C@@H](O)CN1
# Legend:
# [1] = test system: E. coli ATCC25922; test: Checkerboard assay; assay type: cell-based, Escherichia coli; conditions: MHB, 18 h at 37°C, OD600
# Experimental: (§1) Checkerboard assays were performed to evaluate the synergistic effect of CAS in combination with antibiotics as previously described ([Cai et al., 2023]). Briefly, antibiotics and CAS were diluted two times with MHB medium (with or without Mg^2+ or EDTA) in a 96-well plate, respectively, to form an 8 × 8 medium, and an equal volume (200 μL/well) of bacterial suspension with the drug was cultured. A microplate reader was used to measure the OD600 value after 18 h of culture at 37°C (the OD600 value over 0.1 indicates bacterial growth). The fractional inhibitory concentration index (FICI) was calculated using the following formula: FICI = MICab/MICa + MICba/MICb. MICa and MICb are the corresponding MIC values of compounds A and B alone, respectively; MICab is the MIC value of compound A combined with compound B; and MICba is the MIC value of compound B combined with compound A. Indicative of synergy is FICI ≤0.5.
# [2] = test system: E. coli 72; test: Checkerboard assay; assay type: cell-based, Escherichia coli; conditions: multidrug-resistant strain, MHB, 18 h at 37°C, OD600
# Experimental: as §1
# [3] = test system: E. coli 69; test: Checkerboard assay; assay type: cell-based, Escherichia coli; conditions: MHB, 18 h at 37°C, OD600
# Experimental: as §1
# [4] = test system: P. aeruginosa PAO1; test: Checkerboard assay; assay type: cell-based, Pseudomonas aeruginosa; conditions: MHB, 18 h at 37°C, OD600
# Experimental: as §1
# [5] = test system: E. coli MG1655; test: High-throughput screening of FDA-approved drug library for antibiotic adjuvants (growth inhibition, OD600); assay type: cell-based, Escherichia coli; conditions: library drug alone, LB medium, 96-well, 8 h static culture at 37°C, relative to PMBN (positive) and DMSO (negative) controls, %, table head prints no unit
# [6] = test system: Salmonella Typhimurium ATCC14028; test: Checkerboard assay; assay type: cell-based; conditions: MHB, 18 h at 37°C, OD600
# Experimental: as §1
# [7] = test system: E. coli 72; test: Galleria mellonella infection model; assay type: in vivo; conditions: 2.25 × 10^5 CFU E. coli 72; CAS 64 mg/kg, rifampin 16 mg/kg, alone or in combination, injected via proleg; 10 larvae per group; survival over 48 h
# [8] = test system: E. coli MG1655; test: microbe, parasite or virus in culture; assay type: cell-based, Escherichia coli; conditions: for FICI in combination with rifampin: 8 × 8 checkerboard, FICI ≤0.5 indicates synergy; for Synergistic activity with rifampin (in words): checkerboard assays, analogs of CAS
# Experimental: as §1
# [9] = test system: E. coli MG1655; test: Time-kill curve; assay type: cell-based, Escherichia coli; conditions: 1 × 10^6 CFU in MHB; CAS 16 μg/mL, rifampin 1 μg/mL, alone or combined; counted at 4, 8, 24 h
# Experimental: (§2) At each time point (0, 4, 8, and 24 h), 100 μL of the bacterial solution was continuously diluted 10-fold in physiological saline. Subsequently, the suspension was then plated onto LB agar plates and cultured for an overnight period at 37°C for bacterial count.
# [10] = test system: E. coli 72; test: Time-kill curve; assay type: cell-based, Escherichia coli; conditions: 1 × 10^6 CFU in MHB; CAS 32 μg/mL, rifampin 8 μg/mL, alone or combined; counted at 4, 8, 24 h
# Experimental: as §2
# [11] = test system: K+ channel (KvQT1/minK); conditions: vendor library annotation (Targetmol); ref Kang J, et al. J Pharmacol Exp Ther. 2001 Oct;299(1):290-6; read-out: IC50, K+ channel (KvQT1/minK) antagonist; cited from earlier work
# Excerpt: Supplement Table_1.XLSX, sheet "Sheet1" | column: Bioactivity
compound,measurement,setting,value
CO[C@H]1/C=C/O[C@@]2(C)Oc3c(C)c(O)c4c(O)c(c(/C=N/N5CCN(C)CC5)c(O)c4c3C2=O)NC(=O)/C(C)=C\C=C\[C@H](C)[C@H](O)[C@@H](C)[C@@H](O)[C@@H](C)[C@H](OC(C)=O)[C@@H]1C [rifampin],MIC,"[1]; Escherichia coli, ATCC25922, rifampin alone",4 µg/mL
same,MIC of rifampin in combination with CAS,[1]; rifampin with CAS,0.25 µg/mL
same,MIC,"[2]; Escherichia coli, 72, rifampin alone",64 µg/mL
same,MIC of rifampin in combination with CAS,[2]; rifampin with CAS,0.5 µg/mL
same,MIC,"[3]; Escherichia coli, 69, rifampin alone",8 µg/mL
same,MIC of rifampin in combination with CAS,[3]; rifampin with CAS,0.5 µg/mL
same,MIC,"[4]; Pseudomonas aeruginosa, PAO1, rifampin alone",16 µg/mL
same,MIC of rifampin in combination with CAS,[4]; rifampin with CAS,0.5 µg/mL
same,"Growth inhibition, Compound",[5],101%
same,MIC,"[6]; Salmonella enterica, rifampin alone",16 µg/mL
same,MIC of rifampin in combination with CAS,[6]; rifampin with CAS,0.5 µg/mL
same,Death/mortality rate of G. mellonella larvae challenged with E. coli 72,[7],could not reduce the death rate
same,MIC,"[8]; Escherichia coli, MG1655, rifampin alone, MHB, 18 h at 37°C, OD600",8 µg/mL
same,MIC of rifampin in combination with CAS,"[8]; rifampin with CAS, MHB, 18 h at 37°C, OD600",0.5 µg/mL
same,"Time-kill, bacterial count",[9],no antimicrobial efficacy
same,"Time-kill, bacterial count",[10],no antimicrobial efficacy
Echinocandin B nucleus hydrochloride [ECBN HCl],FICI in combination with rifampin,"[8]; MHB, 18 h at 37°C",> 1
same,Synergistic activity with rifampin (in words),[8],weak synergistic activity
OC(c1cc(C(F)(F)F)nc2c(C(F)(F)F)cccc12)C1CCCCN1 (stereo not shown) [Mefloquine],IC50,[11],~1000 nM
"CCCCCOc1ccc(-c2ccc(-c3ccc(C(=O)N[C@H]4C[C@@H](O)[C@@H](O)NC(=O)[C@@H]5[C@@H](O)[C@@H](C)CN5C(=O)[C@H]([C@@H](C)O)NC(=O)[C@H]([C@H](O)[C@@H](O)c5ccc(O)cc5)NC(=O)[C@@H]5C[C@@H](O)CN5C(=O)[C@H]([C@@H](C)O)NC4=O)cc3)cc2)cc1 [Anidulafungin] ({pTerphenylCO(4''-OnC5H11)}-[Orn(4R-OH,5R-OH)]T[Hyp][hTyr(3S-OH,4S-OH)]T[Pro(3S-OH,4S-Me)]; lactam 1-C; N-terminus assumed)",FICI in combination with rifampin,"[8]; MHB, 18 h at 37°C",> 1
same,Synergistic activity with rifampin (in words),[8],weak synergistic activity
Micafungin sodium,FICI in combination with rifampin,"[8]; MHB, 18 h at 37°C",> 1
same,Synergistic activity with rifampin (in words),[8],weak synergistic activity
Pneumocandin B0,FICI in combination with rifampin,"[8]; MHB, 18 h at 37°C",> 1
same,Synergistic activity with rifampin (in words),[8],weak synergistic activity

# Reference: PMC11358092, “Caspofungin enhances the potency of rifampin against Gram-negative bacteria” (Frontiers in Microbiology, 2024)
